Laboratory results reported in patent US20250179059A1 (The Regents of the University of California, priority 2021, published 2025).

The molecules below were run against T1, human BRD4 bromodomain II (Homo sapiens, UniProt O60885) (assay: Bromodomain binding assay (AlphaScreen), BRD4 BDII). Conditions: AlphaScreen assay, Table C2; read-out: BRD4 BDII IC50.
T1 construct: human BRD4 bromodomain II [based on Genbank NM_058243, residues 349-460]; host or cells: E. coli
In short: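 First, His6-tagged BRD4 bromodomain (BDI residues 44-170 or BDII residues 349-460) is incubated with compound for 30 min at room temperature. Next the biotinylated H4 peptide is added for 30 min, then donor and acceptor beads, with 60 min in the dark before AlphaScreen reading and IC50 fitting.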

IC50 | SMILES
10 to 100 nM | CC(=O)Nc1ccc(-c2cccc(-c3ccc4c(c3)CNC(=O)N4)c2O)cc1F [Example 155, N-(3-fluoro-2′-hydroxy-3′-(2-oxo-1,2,3,4-tetrahydroquinazolin-6-yl)-[1,1′-biphenyl]-4-yl)acetamide]
> 100 nM | CC(=O)Nc1ccc(-c2cccc(-c3cc4ccccc4[nH]3)c2O)cc1F [Example 156, N-(3-fluoro-2′-hydroxy-3′-(1H-indol-2-yl)-[1,1′-biphenyl]-4-yl)acetamide]
> 100 nM | COc1cc(-c2cccc(-c3ccc(NC(C)=O)c(F)c3)c2O)ccc1F [Example 157, N-(3,4″-difluoro-2′-hydroxy-3″-methoxy-[1,1′:3′,1″-terphenyl]-4-yl)acetamide]
> 100 nM | COc1ccc(F)c(-c2cccc(-c3ccc(NC(C)=O)c(F)c3)c2O)c1 [Example 158, N-(2″,3-difluoro-2′-hydroxy-5″-methoxy-[1,1′:3′,1″-terphenyl]-4-yl)acetamide]
10 to 100 nM | CC(=O)Nc1ccc(-c2cccc(-c3cccc(N4CCC(N)CC4)c3)c2O)cc1F [Example 159, N-(3″-(4-aminopiperidin-1-yl)-3-fluoro-2′-hydroxy-[1,1′:3′,1″-terphenyl]-4-yl)acetamide 2,2,2-trifluoroacetate]
> 100 nM | CC(=O)Nc1ccc(-c2cccc(-c3cc(N4CCNCC4)n(C)n3)c2O)cc1F [Example 160, N-(3-fluoro-2′-hydroxy-3′-(1-methyl-5-(piperazin-1-yl)-1H-pyrazol-3-yl)-[1,1′-biphenyl]-4-yl)acetamide]
> 100 nM | CC(=O)Nc1ccc(-c2cccc(-c3cc(N4CCNCC4)[nH]n3)c2O)cc1F [Example 162, N-(3-fluoro-2′-hydroxy-3′-(5-(piperazin-1-yl)-1H-pyrazol-3-yl)-[1,1′-biphenyl]-4-yl)acetamide ditrifluoroacetate]
> 100 nM | COc1cc(-c2cccc(-c3cc(Cl)c(N4CCCC4=O)c(Cl)c3)c2O)ccc1NC(C)=O [Example 165, N-(3″,5″-dichloro-2′-hydroxy-3-methoxy-4″-(2-oxopyrrolidin-1-yl)-[1,1′:3′,1″-terphenyl]-4-yl)acetamide]
> 100 nM | CC(=O)Nc1ccc(-c2cccc(-c3cccc(N4CCCCC4)c3)c2O)cc1F [Example 166, N-(3-fluoro-2′-hydroxy-3″-(piperidin-1-yl)-[1,1′:3′,1″-terphenyl]-4-yl)acetamide]
10 to 100 nM | CC(=O)Nc1ccc(-c2cccc(-c3cccc(N4CCNC[C@@H]4C)c3)c2O)cc1F [Example 168, (S)-N-(3-fluoro-2′-hydroxy-3″-(2-methylpiperazin-1-yl)-[1,1′:3′,1″-terphenyl]-4-yl)acetamide]
1 to 10 nM | CC(=O)Nc1ccc(-c2cccc(-c3cccc(N4CCNC[C@H]4C)c3)c2O)cc1F [Example 169, (R)-N-(3-fluoro-2′-hydroxy-3″-(2-methylpiperazin-1-yl)-[1,1′:3′,1″-terphenyl]-4-yl)acetamide]
10 to 100 nM | CC(=O)Nc1ccc(-c2cccc(-c3cccc(N4CC5CC4CN5)c3)c2O)cc1F (stereo not shown) [Example 170, N-(3″-(2,5-diazabicyclo[2.2.1]heptan-2-yl)-3-fluoro-2′-hydroxy-[1,1:3′,1″-terphenyl]-4-yl)acetamide]
> 100 nM | O=C1CCCN1c1c(Cl)cc(-c2cccc(-c3cc(N4CCNCC4)no3)c2O)cc1Cl [Example 172, 1-(3,5-dichloro-2′-hydroxy-3′-(3-(piperazin-1-yl)isoxazol-5-yl)-[1,1′-biphenyl]-4-yl)pyrrolidin-2-one]
10 to 100 nM | CC(=O)Nc1ccc(-c2cccc(-c3cccc(N4CC5CCC4CN5)c3)c2O)cc1F (stereo not shown) [Example 174, N-(3″-(2,5-diazabicyclo[2.2.2]octan-2-yl)-3-fluoro-2′-hydroxy-[1,1′:3′,1″-terphenyl]-4-yl)acetamide]
10 to 100 nM | CC(=O)Nc1c(F)cc(-c2cccc(-c3cccc(N4CCNCC4)c3)c2O)cc1OC1CC1 [Example 175, N-(3-cyclopropoxy-5-fluoro-2′-hydroxy-3″-(piperazin-1-yl)-[1,1′:3′,1″-terphenyl]-4-yl)acetamide]
10 to 100 nM | CC(=O)Nc1ccc(-c2cccc(-c3cccc(N4C[C@H]5CC[C@@H](C4)N5)c3)c2O)cc1F [Example 176, N-(3″-((1R,5S)-3,8-diazabicyclo[3.2.1]octan-3-yl)-3-fluoro-2′-hydroxy-[1,1′:3′,1″-terphenyl]-4-yl)acetamide]
10 to 100 nM | CC(=O)Nc1ccc(-c2cccc(-c3cccc(N4CCC(N)C4)c3)c2O)cc1F (stereo not shown) [Example 177, N-(3″-(3-aminopyrrolidin-1-yl)-3-fluoro-2′-hydroxy-[1,1′:3′,1″-terphenyl]-4-yl)acetamide]
10 to 100 nM | CC(=O)Nc1ccc(-c2cccc(-c3cc(F)cc(N4CCNCC4)c3)c2O)cc1F [Example 178, N-(3,3″-difluoro-2′-hydroxy-5″-(piperazin-1-yl)-[1,1′:3′,1″-terphenyl]-4-yl)acetamide]

IC50 | SMILES
10 to 100 nM | CC(=O)Nc1ccc(-c2cccc(-c3cccc(N4CCN[C@@H](C)C4)c3)c2O)cc1F [Example 179, (S)-N-(3-fluoro-2′-hydroxy-3″-(3-methylpiperazin-1-yl)-[1,1′:3′,1″-terphenyl]-4-yl)acetamide]
> 100 nM | CC(=O)Nc1ccc(-c2cccc(-c3cc(N4CCNCC4)ccc3C)c2O)cc1F [Example 181, N-(3-fluoro-2′-hydroxy-2″-methyl-5″-(piperazin-1-yl)-[1,1′:3′,1″-terphenyl]-4-yl)acetamide]
10 to 100 nM | CC(=O)Nc1ccc(-c2cccc(-c3cccc(N4C[C@@H]5CC[C@H]4CN5)c3)c2O)cc1F [Example 183, N-(3″-((1S,4S)-2,5-diazabicyclo[2.2.2]octan-2-yl)-3-fluoro-2′-hydroxy-[1,1′:3′,1″-terphenyl]-4-yl)acetamide]
10 to 100 nM | CC(=O)Nc1c(F)cc(-c2cccc(-c3cccc(N4CCNCC4)c3)c2O)cc1OCC1CC1 [Example 184, N-(3-(cyclopropylmethoxy)-5-fluoro-2′-hydroxy-3″-(piperazin-1-yl)-[1,1′:3′,1″-terphenyl]-4-yl)acetamide]
> 100 nM | CC(=O)Nc1ccc(-c2cccc(-c3ccc(NC(C)=O)c(N4CCNCC4)c3)c2O)cc1N1CCNCC1 [Example 185, N,N′-(2′-hydroxy-3,3″-di(piperazin-1-yl)-[1,1′:3′,1″-terphenyl]-4,4″-diyl)diacetamide]
> 100 nM | CC(=O)Nc1ccc(-c2cccc(-c3cccc(N4CCC(CN)CC4)c3)c2O)cc1F [Example 186, N-(3″-(4-(aminomethyl)piperidin-1-yl)-3-fluoro-2′-hydroxy-[1,1′:3′,1″-terphenyl]-4-yl)acetamide]
10 to 100 nM | CC(=O)Nc1ccc(-c2cccc(-c3cc(N4CCNCC4)ccc3F)c2O)cc1F [Example 187, N-(2″,3-difluoro-2′-hydroxy-5″-(piperazin-1-yl)-[1,1′:3′,1″-terphenyl]-4-yl)acetamide]
> 100 nM | O=C1CCCN1c1ccc(-c2cccc(-c3ccccc3)c2O)cc1F [Example 188, 1-(3-fluoro-2′-hydroxy-[1,1′:3′,1″-terphenyl]-4-yl)pyrrolidin-2-one]
10 to 100 nM | O=C1CCCN1c1ccc(-c2cccc(-c3ccncc3)c2O)cc1F [Example 190, 1-(3-fluoro-2′-hydroxy-3′-(pyridin-4-yl)-[1,1′-biphenyl]-4-yl)pyrrolidin-2-one]
> 100 nM | CC(=O)Nc1ccc(-c2cccc(-c3cccc(N4CCNCC4=O)c3)c2O)cc1F [Example 191, N-(3-fluoro-2′-hydroxy-3″-(2-oxopiperazin-1-yl)-[1,1′:3′,1″-terphenyl]-4-yl)acetamide]
10 to 100 nM | CC(=O)Nc1ccc(-c2cccc(-c3cccc(N4CCC5(CCNC5)CC4)c3)c2O)cc1F [Example 192, N-(3-fluoro-2′-hydroxy-3″-(2,8-diazaspiro[4.5]decan-8-yl)-[1,1′:3′,1″-terphenyl]-4-yl)acetamide]
1 to 10 nM | CC(=O)Nc1ccc(-c2cccc(-c3cccc(N4CC5(CCNC5)CC4=O)c3)c2O)cc1F (stereo not shown) [Example 194, N-(3-fluoro-2′-hydroxy-3″-(3-oxo-2,7-diazaspiro[4.4]nonan-2-yl)-[1,1′:3′,1″-terphenyl]-4-yl)acetamide]
10 to 100 nM | CC(=O)Nc1ccc(-c2cccc(-c3cccc(N4CCC5(CCNCC5)CC4)c3)c2O)cc1F [Example 195, N-(3-fluoro-2′-hydroxy-3″-(3.9-diazaspiro[5.5]undecan-3-yl)-[1,1′:3′,1″-terphenyl]-4-yl)acetamide]
10 to 100 nM | CC(=O)Nc1ccc(-c2cccc(-c3cccc(N4CCC5(CC4)CNC5)c3)c2O)cc1F [Example 196, N-(3-fluoro-2′-hydroxy-3″-(2,7-diazaspiro[3.5]nonan-7-yl)-[1,1′:3′,1″-terphenyl]-4-yl)acetamide]
1 to 10 nM | O=C1NCCN1c1ccc(-c2cccc(-c3cccc(N4CCNCC4)c3)c2O)cc1F [Example 197, 1-(3-fluoro-2′-hydroxy-3″-(piperazin-1-yl)-[1,1′:3′,1″-terphenyl]-4-yl)imidazolidin-2-one]
1 to 10 nM | CC(=O)Nc1ccc(-c2cccc(-c3ccnc(N4CCC(CO)CC4)c3)c2O)cc1F [Example 198, N-(3-fluoro-2′-hydroxy-3′-(2-(4-(hydroxymethyl)piperidin-1-yl)pyridin-4-yl)-[1,1′-biphenyl]-4-yl)acetamide]
1 to 10 nM | CC(=O)Nc1ccc(-c2cccc(-c3cccc(N4CC(C)NC(C)C4)c3)c2O)cc1F (stereo not shown) [Example 200, N-(3″-(3,5-dimethylpiperazin-1-yl)-3-fluoro-2′-hydroxy-[1,1′:3′,1″-terphenyl]-4-yl)acetamide]
10 to 100 nM | COC(=O)c1cc(-c2cccc(-c3ccc(NC(C)=O)c(F)c3)c2O)ccn1 [Example 201, Methyl 4-(4′-acetamido-3′-fluoro-2-hydroxy-[1,1′-biphenyl]-3-yl)picolinate]

SMILES | IC50
CC(=O)Nc1c(F)cc(-c2cccc(-c3cccc(N4CCNCC4)c3)c2O)cc1OC1CCC1 [Example 167, N-(3-cyclobutoxy-5-fluoro-2′-hydroxy-3″-(piperazin-1-yl)-[1,1′:3′,1″-terphenyl]-4-yl)acetamide] | 1 to 10 nM
